Key:
Assay type in all cases: in vivo
[1] = system: barnyardgrass (Echinochloa crus-galli); assay: Test A pre-/postemergence greenhouse herbicide test, visual injury rating 0-100
Procedure, shortened: (§1)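 Visual injury scored on a 0–100 scale versus untreated controls roughly 10 days after treatment in greenhouse. Treatments were preemergence soil sprays plus postemergence sprays to plants 2–10 cm tall at one- to two-leaf stage, in a surfactant-containing solvent formulation.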

corn (Zea mays) = assay: as above
Procedure, shortened: as §1

[2] = system: giant foxtail (Setaria faberii); assay: as above
Procedure, shortened: as §1

[3] = system: large (Lg) crabgrass (Digitaria sanguinalis); assay: as above
Procedure, shortened: as §1

[4] = system: morningglory (Ipomoea spp.); assay: as above
Procedure, shortened: as §1

[5] = system: pigweed (Amaranthus retroflexus); assay: as above
Procedure, shortened: as §1

[6] = system: velvetleaf (Abutilon theophrasti); assay: as above
Procedure, shortened: as §1

[7] = system: wheat (Triticum aestivum); assay: as above
Procedure, shortened: as §1

[8] = system: barnyardgrass (Echinochloa crus-galli); assay: Test B flooded paddy test, plant response rating 0-100; conditions: Flood, 250 g ai/ha; scale 0 to 100 (0 no effect, 100 complete control); 13 to 15 days
Source text: (§2) At time of treatment, test pots were flooded to 3 cm above the soil surface, treated by application of test compounds directly to the paddy water, and then maintained at that water depth for the duration of the test. Treated plants and controls were maintained in a greenhouse for 13 to 15 days, after which time all species were compared to controls and visually evaluated. […] A dash (-) response means no test result.

[9] = system: ducksalad (Heteranthera limosa); assay: as above; conditions: Flood, 250 g ai/ha; scale 0 to 100 (0 no effect, 100 complete control); 13 to 15 days
Source text: as §2

rice (Oryza sativa) = assay: as above; conditions: Flood, 250 g ai/ha; scale 0 to 100 (0 no effect, 100 complete control); 13 to 15 days
Source text: as §2

[10] = system: sedge, umbrella (small-flower umbrella sedge, Cyperus difformis); assay: as above; conditions: Flood, 250 g ai/ha; scale 0 to 100 (0 no effect, 100 complete control); 13 to 15 days
Source text: as §2

Question: With `Clc1ccc(NN=C(c2ccccc2)c2c[nH]nc2-c2cc(Cl)cc(Cl)c2)cc1` [Compound 65] as the compound, how does the “Plant response rating (0 to 100 scale), Barnyardgrass” value ([1]; Postemergence, 1000 g ai/ha) read?
Answer: 0

Question: What about the “Plant response rating (0 to 100 scale), Barnyardgrass” value ([1]; Preemergence, 1000 g ai/ha) of the same compound?
Answer: 0

Question: What about the “Plant response rating (0 to 100 scale), Corn” value (corn (Zea mays); Postemergence, 1000 g ai/ha) of the same compound?
Answer: 0

Question: And the “Plant response rating (0 to 100 scale), Corn” value (corn (Zea mays); Preemergence, 1000 g ai/ha)?
Answer: 0

Question: What about the “Plant response rating (0 to 100 scale), Foxtail, Giant” value ([2]; Postemergence, 1000 g ai/ha) of the same compound?
Answer: 0

Question: What about the “Plant response rating (0 to 100 scale), Foxtail, Giant” value ([2]; Preemergence, 1000 g ai/ha) of the same compound?
Answer: 0

Question: And the “Plant response rating (0 to 100 scale), Crabgrass, Large” value ([3]; Postemergence, 1000 g ai/ha)?
Answer: 0

Question: And the “Plant response rating (0 to 100 scale), Crabgrass, Large” value ([3]; Preemergence, 1000 g ai/ha)?
Answer: 0

Question: And the “Plant response rating (0 to 100 scale), Morningglory” value ([4]; Postemergence, 1000 g ai/ha)?
Answer: 30

Question: What about the “Plant response rating (0 to 100 scale), Morningglory” value ([4]; Preemergence, 1000 g ai/ha) of the same compound?
Answer: 0

Question: What about the “Plant response rating (0 to 100 scale), Pigweed” value ([5]; Postemergence, 1000 g ai/ha) of the same compound?
Answer: 90

Question: And the “Plant response rating (0 to 100 scale), Pigweed” value ([5]; Preemergence, 1000 g ai/ha)?
Answer: 80

Question: What about the “Plant response rating (0 to 100 scale), Velvetleaf” value ([6]; Postemergence, 1000 g ai/ha) of the same compound?
Answer: 90

Question: And the “Plant response rating (0 to 100 scale), Velvetleaf” value ([6]; Preemergence, 1000 g ai/ha)?
Answer: 80

Question: And the “Plant response rating (0 to 100 scale), Wheat” value ([7]; Postemergence, 1000 g ai/ha)?
Answer: 0

Question: And the “Plant response rating (0 to 100 scale), Wheat” value ([7]; Preemergence, 1000 g ai/ha)?
Answer: 0

Question: What about the “Plant response rating, Barnyardgrass” value [8] of the same compound?
Answer: 0

Question: And the “Plant response rating, Ducksalad” value [9]?
Answer: 0

Question: What about the “Plant response rating, Rice” value (rice (Oryza sativa)) of the same compound?
Answer: 0

Question: And the “Plant response rating, Sedge, Umbrella” value [10]?
Answer: 0

Question: For `N#CCn1cc(C(=O)c2ccccc2)c(-c2cc(Cl)cc(Cl)c2)n1` [Compound 43], which “Plant response rating (0 to 100 scale), Barnyardgrass” value ([1]; Postemergence, 125 g ai/ha) is on record?
Answer: 0

Question: And the “Plant response rating (0 to 100 scale), Barnyardgrass” value ([1]; Postemergence, 500 g ai/ha)?
Answer: 0

Question: And the “Barnyardgrass plant response rating (0 = no effect, 100 = complete control)” value ([1]; Preemergence, 125 g ai/ha)?
Answer: 0

Question: What about the “Plant response rating (0 to 100 scale), Barnyardgrass” value ([1]; Preemergence, 500 g ai/ha) of the same compound?
Answer: 0

Question: What about the “Plant response rating (0 to 100 scale), Corn” value (corn (Zea mays); Postemergence, 125 g ai/ha) of the same compound?
Answer: 0

Question: What about the “Plant response rating (0 to 100 scale), Corn” value (corn (Zea mays); Postemergence, 500 g ai/ha) of the same compound?
Answer: 0

Question: What about the “Corn plant response rating (0 = no effect, 100 = complete control)” value (corn (Zea mays); Preemergence, 125 g ai/ha) of the same compound?
Answer: 0

Question: What about the “Plant response rating (0 to 100 scale), Corn” value (corn (Zea mays); Preemergence, 500 g ai/ha) of the same compound?
Answer: 0

Question: And the “Plant response rating (0 to 100 scale), Foxtail, Giant” value ([2]; Postemergence, 125 g ai/ha)?
Answer: 0

Question: What about the “Plant response rating (0 to 100 scale), Foxtail, Giant” value ([2]; Postemergence, 500 g ai/ha) of the same compound?
Answer: 0

Question: What about the “Foxtail, Giant plant response rating (0 = no effect, 100 = complete control)” value ([2]; Preemergence, 125 g ai/ha) of the same compound?
Answer: 0

Question: And the “Plant response rating (0 to 100 scale), Foxtail, Giant” value ([2]; Preemergence, 500 g ai/ha)?
Answer: 0

Question: And the “Plant response rating (0 to 100 scale), Crabgrass, Large” value ([3]; Postemergence, 125 g ai/ha)?
Answer: 0

Question: And the “Plant response rating (0 to 100 scale), Crabgrass, Large” value ([3]; Postemergence, 500 g ai/ha)?
Answer: 0

Question: What about the “Crabgrass, Large plant response rating (0 = no effect, 100 = complete control)” value ([3]; Preemergence, 125 g ai/ha) of the same compound?
Answer: 0

Question: And the “Plant response rating (0 to 100 scale), Crabgrass, Large” value ([3]; Preemergence, 500 g ai/ha)?
Answer: 0

Question: And the “Morningglory plant response rating (0 = no effect, 100 = complete control)” value ([4]; Preemergence, 125 g ai/ha)?
Answer: 0

Question: What about the “Plant response rating (0 to 100 scale), Morningglory” value ([4]; Preemergence, 500 g ai/ha) of the same compound?
Answer: 0

Question: What about the “Plant response rating (0 to 100 scale), Pigweed” value ([5]; Postemergence, 125 g ai/ha) of the same compound?
Answer: 50

Question: And the “Plant response rating (0 to 100 scale), Pigweed” value ([5]; Postemergence, 500 g ai/ha)?
Answer: 80

Question: And the “Pigweed plant response rating (0 = no effect, 100 = complete control)” value ([5]; Preemergence, 125 g ai/ha)?
Answer: 0

Question: And the “Plant response rating (0 to 100 scale), Pigweed” value ([5]; Preemergence, 500 g ai/ha)?
Answer: 40

Question: What about the “Plant response rating (0 to 100 scale), Velvetleaf” value ([6]; Postemergence, 125 g ai/ha) of the same compound?
Answer: 20

Question: And the “Plant response rating (0 to 100 scale), Velvetleaf” value ([6]; Postemergence, 500 g ai/ha)?
Answer: 80

Question: And the “Velvetleaf plant response rating (0 = no effect, 100 = complete control)” value ([6]; Preemergence, 125 g ai/ha)?
Answer: 30

Question: And the “Plant response rating (0 to 100 scale), Velvetleaf” value ([6]; Preemergence, 500 g ai/ha)?
Answer: 30

Question: And the “Plant response rating (0 to 100 scale), Wheat” value ([7]; Postemergence, 125 g ai/ha)?
Answer: 0

Question: What about the “Plant response rating (0 to 100 scale), Wheat” value ([7]; Postemergence, 500 g ai/ha) of the same compound?
Answer: 0

Question: What about the “Wheat plant response rating (0 = no effect, 100 = complete control)” value ([7]; Preemergence, 125 g ai/ha) of the same compound?
Answer: 0

Question: And the “Plant response rating (0 to 100 scale), Wheat” value ([7]; Preemergence, 500 g ai/ha)?
Answer: 0

Question: And the “Plant response rating, Barnyardgrass” value [8]?
Answer: 0

Question: What about the “Plant response rating, Ducksalad” value [9] of the same compound?
Answer: 0

Question: And the “Plant response rating, Rice” value (rice (Oryza sativa))?
Answer: 0

Question: And the “Plant response rating, Sedge, Umbrella” value [10]?
Answer: 0
